What is called IC50 is the concentration needed to halve the response being measured.

Test [1] deals with T1, cGMP-inhibited 3',5'-cyclic phosphodiesterase 3A [388-1112] (Homo sapiens, UniProt Q14432).
T1 construct: 388-1112
Description: PDE SPA Enzyme Inhibition Assay. The procedure:
(§1) PDE activity was monitored by measuring the hydrolysis of [3H]-cAMP to [3H]-AMP using scintillation proximity assay (SPA). [3H]-AMP was captured by the SPA beads, and quantified on a TopCount plate reader. Data was analyzed in Graph Pad Prism software.

The target of test [2] is T2, cGMP-inhibited 3',5'-cyclic phosphodiesterase 3B [387-1112] (Homo sapiens, UniProt Q13370).
T2 construct: 387-1112
The test is described as follows: PDE SPA Enzyme Inhibition Assay. How it is done:
as §1

Structures are written as SMILES.

T2 sequence (Q13370 387-1112): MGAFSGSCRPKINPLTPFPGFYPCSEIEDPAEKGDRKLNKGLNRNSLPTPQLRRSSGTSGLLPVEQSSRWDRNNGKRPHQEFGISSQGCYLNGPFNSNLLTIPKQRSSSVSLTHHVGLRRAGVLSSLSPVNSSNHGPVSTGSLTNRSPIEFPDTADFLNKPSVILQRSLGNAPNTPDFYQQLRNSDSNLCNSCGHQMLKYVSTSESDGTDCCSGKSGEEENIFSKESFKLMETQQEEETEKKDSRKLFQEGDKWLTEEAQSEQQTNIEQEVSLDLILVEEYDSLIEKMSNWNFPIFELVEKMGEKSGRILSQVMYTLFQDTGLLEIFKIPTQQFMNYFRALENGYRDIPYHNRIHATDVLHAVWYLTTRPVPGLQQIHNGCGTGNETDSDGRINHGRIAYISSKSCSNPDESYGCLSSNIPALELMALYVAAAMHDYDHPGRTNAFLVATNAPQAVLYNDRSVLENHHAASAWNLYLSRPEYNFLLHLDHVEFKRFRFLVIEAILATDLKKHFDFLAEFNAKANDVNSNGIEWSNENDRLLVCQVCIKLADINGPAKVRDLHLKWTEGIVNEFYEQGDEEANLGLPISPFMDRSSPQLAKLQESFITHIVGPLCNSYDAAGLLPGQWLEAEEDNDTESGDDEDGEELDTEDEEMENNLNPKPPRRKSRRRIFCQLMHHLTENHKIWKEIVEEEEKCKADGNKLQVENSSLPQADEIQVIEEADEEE
T1 sequence (Q14432 388-1112): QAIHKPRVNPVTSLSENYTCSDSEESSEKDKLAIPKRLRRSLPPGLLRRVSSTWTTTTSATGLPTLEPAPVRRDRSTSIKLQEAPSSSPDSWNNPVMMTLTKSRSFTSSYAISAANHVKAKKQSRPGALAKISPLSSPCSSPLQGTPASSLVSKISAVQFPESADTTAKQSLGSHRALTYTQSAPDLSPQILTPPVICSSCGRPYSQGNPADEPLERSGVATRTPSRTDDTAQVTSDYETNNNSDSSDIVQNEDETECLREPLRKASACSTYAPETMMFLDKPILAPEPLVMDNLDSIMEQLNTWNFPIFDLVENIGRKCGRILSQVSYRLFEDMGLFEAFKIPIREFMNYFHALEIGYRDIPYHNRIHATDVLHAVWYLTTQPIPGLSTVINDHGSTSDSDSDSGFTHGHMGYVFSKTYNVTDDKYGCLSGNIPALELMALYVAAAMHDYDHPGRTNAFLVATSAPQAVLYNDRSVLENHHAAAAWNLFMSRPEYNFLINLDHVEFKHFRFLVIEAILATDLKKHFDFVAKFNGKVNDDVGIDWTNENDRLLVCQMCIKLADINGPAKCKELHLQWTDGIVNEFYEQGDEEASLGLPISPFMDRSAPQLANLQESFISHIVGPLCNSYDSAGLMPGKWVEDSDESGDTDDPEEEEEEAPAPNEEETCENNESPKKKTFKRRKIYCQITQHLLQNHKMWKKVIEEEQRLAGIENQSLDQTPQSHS

Take `CC1(C)C(=O)NN=C1c1ccc(NC2=C(Cc3cccc(C#N)c3)C(=O)CCC2)c(F)c1F` [3-[(2-{[4-(4,4-dimethyl-5-oxo-4,5-dihydro-1H-pyrazol-3-yl)-2,3-difluorophenyl]amino}-6-oxocyclohex-1-en-1-yl)methyl]benzonitrile]: the IC50 in test [1] was determined as 7.6 nM; in test [2] it was 0.33 nM.
For `CC1CC(=O)NN=C1c1ccc(NC2=C(Cc3ccccc3)C(=O)CCC2)c(F)c1` (stereo not given) [6-{4-[(2-benzyl-3-oxocyclohex-1-en-1-yl)amino]-3-fluorophenyl}-5-methyl-2,3,4,5-tetrahydropyridazin-3-one], in that order: 1.2 nM and 0.26 nM.
For `Cc1cc(C2=NNC(=O)CC2C)ccc1NC1=C(Cc2ccccc2)C(=O)CCC1` (stereo not given) [6-{4-[(2-benzyl-3-oxocyclohex-1-en-1-yl)amino]-3-methylphenyl}-5-methyl-2,3,4,5-tetrahydropyridazin-3-one], in that order: 3.7 nM and 0.61 nM.
As for `C[C@@H]1CC(=O)NN=C1c1ccc(NC2=C(Cc3cccc(-c4cccc([N+](=O)[O-])c4)c3)C(=O)CCC2)cc1` [(5R)-5-methyl-6-{4-[(2-{[3-(3-nitrophenyl)phenyl]methyl}-3-oxocyclohex-1-en-1-yl)amino]phenyl}-2,3,4,5-tetrahydropyridazin-3-one], the IC50 in test [1] was 0.11 nM; in test [2] (pH 7.5, 22 °C) it was 0.049 nM.
On to `C[C@@H]1CC(=O)NN=C1c1ccc(NC2=C(Cc3cccc(-c4ccsc4)c3)C(=O)CCC2)cc1` [(5R)-5-methyl-6-{4-[(3-oxo-2-{[3-(thiophen-3-yl)phenyl]methyl}cyclohex-1-en-1-yl)amino]phenyl}-2,3,4,5-tetrahydropyridazin-3-one], for which the IC50 came out at 0.11 nM in test [1] and 0.068 nM in test [2] (pH 7.5, 22 °C).

These data come from BindingDB's records for doi:10.1016/j.bmcl.2003.08.056 (Merck Research Laboratories, 2003).
